From the kinase profiling compilation of Christmann-Franck et al. (2016)

How the values were obtained:
Test in all cases: KINOMEscan competition binding
Settings in all cases: compound 10.0 µM
PLK1 (human) = PLK1 (human) (UniProt P53350)
DDR2 (human) = DDR2 (human) (UniProt Q16832)
CAMK2A (human) = CAMK2A (human) (UniProt Q9UQM7)
RAF1 (human) = RAF1 (human) (UniProt P04049)
MARK2 (human) = MARK2 (human) (UniProt Q7KZI7)
STK38L (human) = STK38L (human) (UniProt Q9Y2H1)
CAMK2G (human) = CAMK2G (human) (UniProt Q13555)
Sequence of CAMK2G (human) (Q13555 whole entry, looked up): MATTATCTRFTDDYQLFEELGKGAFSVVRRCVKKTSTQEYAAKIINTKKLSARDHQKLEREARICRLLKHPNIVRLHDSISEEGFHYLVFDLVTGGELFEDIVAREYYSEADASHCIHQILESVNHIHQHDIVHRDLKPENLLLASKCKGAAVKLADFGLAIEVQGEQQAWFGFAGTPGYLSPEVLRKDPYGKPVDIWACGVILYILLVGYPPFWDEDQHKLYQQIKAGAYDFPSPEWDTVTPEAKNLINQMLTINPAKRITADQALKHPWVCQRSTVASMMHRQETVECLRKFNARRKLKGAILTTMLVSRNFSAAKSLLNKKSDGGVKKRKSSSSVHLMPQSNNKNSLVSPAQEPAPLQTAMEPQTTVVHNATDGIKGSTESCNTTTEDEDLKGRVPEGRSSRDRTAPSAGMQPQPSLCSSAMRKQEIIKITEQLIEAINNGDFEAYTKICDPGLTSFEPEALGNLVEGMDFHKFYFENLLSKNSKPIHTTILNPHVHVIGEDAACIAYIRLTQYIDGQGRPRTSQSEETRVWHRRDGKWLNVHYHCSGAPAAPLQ

ALK (human) = ALK (human) (UniProt Q9UM73)
EIF2AK2 (human) = EIF2AK2 (human) (UniProt P19525)
MLTK (human) = MLTK (human) (UniProt Q9NYL2)
ROS1 (human) = ROS1 (human) (UniProt P08922)
Sequence of ROS1 (human) (P08922 whole entry, looked up): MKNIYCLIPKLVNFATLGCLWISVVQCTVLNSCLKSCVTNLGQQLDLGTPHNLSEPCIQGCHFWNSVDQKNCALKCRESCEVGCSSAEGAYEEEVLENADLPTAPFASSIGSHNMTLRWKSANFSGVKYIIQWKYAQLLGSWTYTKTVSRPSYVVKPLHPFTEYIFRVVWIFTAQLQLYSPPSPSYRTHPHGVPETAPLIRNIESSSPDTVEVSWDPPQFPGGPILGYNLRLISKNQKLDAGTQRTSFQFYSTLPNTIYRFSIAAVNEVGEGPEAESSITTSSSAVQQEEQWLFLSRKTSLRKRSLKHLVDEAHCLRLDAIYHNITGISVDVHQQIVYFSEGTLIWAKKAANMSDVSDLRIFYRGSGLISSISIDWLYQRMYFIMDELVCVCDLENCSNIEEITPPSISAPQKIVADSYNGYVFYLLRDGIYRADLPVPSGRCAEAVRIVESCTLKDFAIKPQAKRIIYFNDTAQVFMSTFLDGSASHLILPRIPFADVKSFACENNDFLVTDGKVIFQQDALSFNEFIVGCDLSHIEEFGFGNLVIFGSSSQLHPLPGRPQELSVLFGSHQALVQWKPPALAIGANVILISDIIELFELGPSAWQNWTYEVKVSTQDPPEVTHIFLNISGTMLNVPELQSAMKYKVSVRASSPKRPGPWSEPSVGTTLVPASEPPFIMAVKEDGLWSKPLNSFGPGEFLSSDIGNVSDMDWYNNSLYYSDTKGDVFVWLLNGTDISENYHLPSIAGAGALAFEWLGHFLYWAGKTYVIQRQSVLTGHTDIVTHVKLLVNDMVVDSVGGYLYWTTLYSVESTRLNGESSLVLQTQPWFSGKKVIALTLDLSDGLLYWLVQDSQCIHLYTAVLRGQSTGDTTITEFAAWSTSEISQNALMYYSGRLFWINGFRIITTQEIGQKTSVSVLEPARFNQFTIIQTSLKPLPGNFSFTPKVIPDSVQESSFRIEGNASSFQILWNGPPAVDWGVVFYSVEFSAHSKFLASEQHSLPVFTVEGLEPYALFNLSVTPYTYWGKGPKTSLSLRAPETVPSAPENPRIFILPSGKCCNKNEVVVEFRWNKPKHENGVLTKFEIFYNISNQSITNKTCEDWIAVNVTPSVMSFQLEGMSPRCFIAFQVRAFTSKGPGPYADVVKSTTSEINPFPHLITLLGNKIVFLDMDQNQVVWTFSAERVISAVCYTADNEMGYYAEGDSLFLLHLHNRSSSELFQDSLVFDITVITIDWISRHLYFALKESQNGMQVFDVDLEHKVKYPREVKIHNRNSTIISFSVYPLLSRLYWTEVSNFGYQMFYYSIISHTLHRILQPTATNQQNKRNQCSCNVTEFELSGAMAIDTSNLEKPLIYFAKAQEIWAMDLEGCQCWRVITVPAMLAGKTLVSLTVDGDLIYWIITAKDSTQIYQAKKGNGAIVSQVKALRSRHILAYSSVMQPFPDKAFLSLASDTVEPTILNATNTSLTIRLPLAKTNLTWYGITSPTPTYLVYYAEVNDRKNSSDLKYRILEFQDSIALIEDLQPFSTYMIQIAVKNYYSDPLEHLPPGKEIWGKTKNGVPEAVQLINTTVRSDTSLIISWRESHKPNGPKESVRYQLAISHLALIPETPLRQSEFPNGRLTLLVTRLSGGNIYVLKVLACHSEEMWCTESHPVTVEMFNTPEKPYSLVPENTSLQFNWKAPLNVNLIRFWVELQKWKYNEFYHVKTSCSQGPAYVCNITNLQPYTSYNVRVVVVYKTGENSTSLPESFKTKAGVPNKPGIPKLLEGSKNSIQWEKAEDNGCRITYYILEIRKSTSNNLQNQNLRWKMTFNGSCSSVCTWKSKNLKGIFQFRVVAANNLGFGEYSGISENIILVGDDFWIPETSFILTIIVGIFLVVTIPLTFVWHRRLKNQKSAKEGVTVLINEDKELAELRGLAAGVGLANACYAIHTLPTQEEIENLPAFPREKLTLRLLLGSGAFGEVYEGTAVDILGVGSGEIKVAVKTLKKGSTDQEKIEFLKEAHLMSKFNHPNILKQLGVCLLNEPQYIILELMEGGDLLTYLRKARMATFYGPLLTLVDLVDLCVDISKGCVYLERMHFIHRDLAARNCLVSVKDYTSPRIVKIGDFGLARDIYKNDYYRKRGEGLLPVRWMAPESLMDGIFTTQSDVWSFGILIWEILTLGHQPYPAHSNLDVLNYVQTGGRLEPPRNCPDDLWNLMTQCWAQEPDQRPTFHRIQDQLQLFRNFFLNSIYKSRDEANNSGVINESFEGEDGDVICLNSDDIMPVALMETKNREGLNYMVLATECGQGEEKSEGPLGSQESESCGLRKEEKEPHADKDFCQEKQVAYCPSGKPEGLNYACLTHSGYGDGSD

[1] = tested on: RET (human), P07949 [M918T]
PRKD2 (human) = PRKD2 (human) (UniProt Q9BZL6)
STK3 (human) = STK3 (human) (UniProt Q13188)
BMPR1A (human) = BMPR1A (human) (UniProt P36894)
SIK2 (human) = SIK2 (human) (UniProt Q9H0K1)
AURKA (human) = AURKA (human) (UniProt O14965)
MAP3K12 (human) = MAP3K12 (human) (UniProt Q12852)
FGFR2 (human) = FGFR2 (human) (UniProt P21802)
PRKCQ (human) = PRKCQ (human) (UniProt Q04759)
FYN (human) = FYN (human) (UniProt P06241)
MARK3 (human) = MARK3 (human) (UniProt P27448)
LATS1 (human) = LATS1 (human) (UniProt O95835)
STK10 (human) = STK10 (human) (UniProt O94804)
INSR (human) = INSR (human) (UniProt P06213)
PIK3CD (human) = PIK3CD (human) (UniProt O00329)
Sequence of PIK3CD (human) (O00329 whole entry, looked up): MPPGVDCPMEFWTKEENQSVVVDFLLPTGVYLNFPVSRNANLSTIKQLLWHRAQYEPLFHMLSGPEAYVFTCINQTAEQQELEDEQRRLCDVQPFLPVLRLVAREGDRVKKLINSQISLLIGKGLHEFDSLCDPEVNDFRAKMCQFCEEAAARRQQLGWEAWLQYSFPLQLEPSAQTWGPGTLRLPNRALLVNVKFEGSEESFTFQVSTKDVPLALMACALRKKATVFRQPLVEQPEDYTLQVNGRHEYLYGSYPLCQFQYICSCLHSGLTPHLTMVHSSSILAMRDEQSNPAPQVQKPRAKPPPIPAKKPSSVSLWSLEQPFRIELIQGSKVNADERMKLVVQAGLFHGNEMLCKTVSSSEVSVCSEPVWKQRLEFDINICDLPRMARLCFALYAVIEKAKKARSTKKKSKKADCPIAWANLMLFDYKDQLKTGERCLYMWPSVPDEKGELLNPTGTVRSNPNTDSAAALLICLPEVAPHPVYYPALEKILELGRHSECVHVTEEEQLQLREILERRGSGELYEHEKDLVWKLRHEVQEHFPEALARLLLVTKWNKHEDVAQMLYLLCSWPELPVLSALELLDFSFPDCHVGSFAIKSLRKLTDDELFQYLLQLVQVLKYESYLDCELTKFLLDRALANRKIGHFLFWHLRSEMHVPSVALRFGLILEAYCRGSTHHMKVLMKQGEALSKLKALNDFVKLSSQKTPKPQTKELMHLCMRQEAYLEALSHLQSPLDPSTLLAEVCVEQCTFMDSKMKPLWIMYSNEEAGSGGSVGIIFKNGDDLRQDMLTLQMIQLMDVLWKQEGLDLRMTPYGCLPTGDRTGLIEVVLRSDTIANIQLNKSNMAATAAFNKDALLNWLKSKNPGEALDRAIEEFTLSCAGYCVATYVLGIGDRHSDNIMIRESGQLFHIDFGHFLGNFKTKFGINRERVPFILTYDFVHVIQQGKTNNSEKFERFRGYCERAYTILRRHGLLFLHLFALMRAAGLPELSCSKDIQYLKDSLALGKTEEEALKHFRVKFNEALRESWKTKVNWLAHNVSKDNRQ

TESK1 (human) = TESK1 (human) (UniProt Q15569)
ZAP70 (human) = ZAP70 (human) (UniProt P43403)
EPHA6 (human) = EPHA6 (human) (UniProt Q9UF33)
[2] = tested on: ABL1 (human), P00519 [M351T]
TNNI3K (human) = TNNI3K (human) (UniProt Q59H18)
CDC42BPA (human) = CDC42BPA (human) (UniProt Q5VT25)
MAPK4 (human) = MAPK4 (human) (UniProt P31152)
[3] = tested on: FGFR3 (human), P22607 [G697C]
PKMYT1 (human) = PKMYT1 (human) (UniProt Q99640)
EPHA2 (human) = EPHA2 (human) (UniProt P29317)
TIE1 (human) = TIE1 (human) (UniProt P35590)
LATS2 (human) = LATS2 (human) (UniProt Q9NRM7)
CDK18 (human) = CDK18 (human) (UniProt Q07002)
EPHB3 (human) = EPHB3 (human) (UniProt P54753)
CDKL2 (human) = CDKL2 (human) (UniProt Q92772)
PRKG1 (human) = PRKG1 (human) (UniProt Q13976)

Sequence of DDR2 (human) (Q16832 whole entry, looked up): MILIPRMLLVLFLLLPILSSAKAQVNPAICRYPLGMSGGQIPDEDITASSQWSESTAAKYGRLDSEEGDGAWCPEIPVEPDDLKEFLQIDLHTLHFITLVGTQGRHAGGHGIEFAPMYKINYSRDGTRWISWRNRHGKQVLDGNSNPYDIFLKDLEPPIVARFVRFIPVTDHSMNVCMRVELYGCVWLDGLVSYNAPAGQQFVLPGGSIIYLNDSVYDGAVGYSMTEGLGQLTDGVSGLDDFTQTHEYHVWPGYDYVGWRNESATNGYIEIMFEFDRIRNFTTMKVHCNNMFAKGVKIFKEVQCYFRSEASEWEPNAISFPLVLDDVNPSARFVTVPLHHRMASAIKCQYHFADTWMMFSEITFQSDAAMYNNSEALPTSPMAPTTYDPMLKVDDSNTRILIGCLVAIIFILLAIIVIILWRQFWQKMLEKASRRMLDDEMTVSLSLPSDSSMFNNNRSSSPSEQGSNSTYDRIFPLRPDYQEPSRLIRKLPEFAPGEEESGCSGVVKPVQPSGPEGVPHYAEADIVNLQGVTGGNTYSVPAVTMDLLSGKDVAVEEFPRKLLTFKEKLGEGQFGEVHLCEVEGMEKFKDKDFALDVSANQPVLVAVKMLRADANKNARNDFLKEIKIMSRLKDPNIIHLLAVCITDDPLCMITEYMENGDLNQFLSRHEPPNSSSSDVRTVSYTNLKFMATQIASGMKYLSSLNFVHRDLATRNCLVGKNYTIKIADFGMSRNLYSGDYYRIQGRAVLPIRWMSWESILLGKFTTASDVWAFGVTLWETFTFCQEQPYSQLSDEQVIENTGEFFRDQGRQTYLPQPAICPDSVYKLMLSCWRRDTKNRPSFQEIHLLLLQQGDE

Nc1cccc(-c2cc(/C=C3\SC(=O)NC3=O)c[nH]c2=O)c1
kinase still bound, per cent of control (PLK1 (human)): 1.8%
kinase still bound, per cent of control (DDR2 (human)): 33%

O=C1NC(=S)S/C1=C\c1ccc(-c2cncc3ccccc23)o1
kinase still bound, per cent of control (CAMK2A (human)): 22%
kinase still bound, per cent of control (RAF1 (human)): 25%
kinase still bound, per cent of control (MARK2 (human)): 23%
kinase still bound, per cent of control (STK38L (human)): 29%
kinase still bound, per cent of control (CAMK2G (human)): 32%
kinase still bound, per cent of control (ALK (human)): 30%
kinase still bound, per cent of control (EIF2AK2 (human)): 23%
kinase still bound, per cent of control (MLTK (human)): 31%
kinase still bound, per cent of control (ROS1 (human)): 34%

N=C1NC(=O)/C(=C/c2ccc(-c3cncc4ccccc34)o2)S1
kinase still bound, per cent of control [1]: 21%
kinase still bound, per cent of control (CAMK2A (human)): 10%
kinase still bound, per cent of control (CAMK2G (human)): 11%
kinase still bound, per cent of control (PRKD2 (human)): 8.1%
kinase still bound, per cent of control (STK3 (human)): 25%
kinase still bound, per cent of control (EIF2AK2 (human)): 25%
kinase still bound, per cent of control (MLTK (human)): 23%
kinase still bound, per cent of control (BMPR1A (human)): 33%
kinase still bound, per cent of control (SIK2 (human)): 27%

CN1C(=O)[C@H]2CCC[C@H]2N(C2CCCC2)c2nc(Nc3ccc(C(N)=O)cc3)ncc21
kinase still bound, per cent of control (PLK1 (human)): 0.65%
kinase still bound, per cent of control (AURKA (human)): 7.6%

CN1C(=O)c2ccccc2N(C)c2nc(Nc3ccc(N4CCC(O)CC4)cc3)ncc21
kinase still bound, per cent of control [1]: 4.2%
kinase still bound, per cent of control (CAMK2A (human)): 86%
kinase still bound, per cent of control (MAP3K12 (human)): 85%
kinase still bound, per cent of control (FGFR2 (human)): 63%
kinase still bound, per cent of control (PRKCQ (human)): 92%
kinase still bound, per cent of control (FYN (human)): 35%
kinase still bound, per cent of control (MARK3 (human)): 60%
kinase still bound, per cent of control (LATS1 (human)): 92%
kinase still bound, per cent of control (STK10 (human)): 100%
kinase still bound, per cent of control (PLK1 (human)): 50%
kinase still bound, per cent of control (RAF1 (human)): 100%
kinase still bound, per cent of control (INSR (human)): 80%
kinase still bound, per cent of control (MARK2 (human)): 51%
kinase still bound, per cent of control (PIK3CD (human)): 58%
kinase still bound, per cent of control (TESK1 (human)): 97%
kinase still bound, per cent of control (STK38L (human)): 82%
kinase still bound, per cent of control (CAMK2G (human)): 100%
kinase still bound, per cent of control (ZAP70 (human)): 87%
kinase still bound, per cent of control (EPHA6 (human)): 100%
kinase still bound, per cent of control (AURKA (human)): 2.4%
kinase still bound, per cent of control (DDR2 (human)): 96%
kinase still bound, per cent of control [2]: 3%
kinase still bound, per cent of control (PRKD2 (human)): 99%
kinase still bound, per cent of control (STK3 (human)): 27%
kinase still bound, per cent of control (ALK (human)): 100%
kinase still bound, per cent of control (EIF2AK2 (human)): 100%
kinase still bound, per cent of control (TNNI3K (human)): 100%
kinase still bound, per cent of control (CDC42BPA (human)): 90%
kinase still bound, per cent of control (MAPK4 (human)): 100%
kinase still bound, per cent of control [3]: 81%
kinase still bound, per cent of control (PKMYT1 (human)): 100%
kinase still bound, per cent of control (MLTK (human)): 100%
kinase still bound, per cent of control (EPHA2 (human)): 99%
kinase still bound, per cent of control (TIE1 (human)): 59%
kinase still bound, per cent of control (ROS1 (human)): 35%
kinase still bound, per cent of control (LATS2 (human)): 100%
kinase still bound, per cent of control (BMPR1A (human)): 61%
kinase still bound, per cent of control (CDK18 (human)): 100%
kinase still bound, per cent of control (EPHB3 (human)): 100%
kinase still bound, per cent of control (CDKL2 (human)): 100%
kinase still bound, per cent of control (PRKG1 (human)): 100%
kinase still bound, per cent of control (SIK2 (human)): 61%

COc1cc(N2CCN(C)CC2)ccc1Nc1ncc2c(n1)N(C)c1sccc1C(=O)N2C
kinase still bound, per cent of control [1]: 96%
kinase still bound, per cent of control (CAMK2A (human)): 44%
kinase still bound, per cent of control (MAP3K12 (human)): 86%
kinase still bound, per cent of control (FGFR2 (human)): 81%
kinase still bound, per cent of control (PRKCQ (human)): 92%
kinase still bound, per cent of control (FYN (human)): 86%
kinase still bound, per cent of control (MARK3 (human)): 91%
kinase still bound, per cent of control (LATS1 (human)): 79%
kinase still bound, per cent of control (STK10 (human)): 100%
kinase still bound, per cent of control (PLK1 (human)): 2.5%
kinase still bound, per cent of control (RAF1 (human)): 94%
kinase still bound, per cent of control (INSR (human)): 100%
kinase still bound, per cent of control (MARK2 (human)): 100%
kinase still bound, per cent of control (PIK3CD (human)): 48%
kinase still bound, per cent of control (TESK1 (human)): 90%
kinase still bound, per cent of control (STK38L (human)): 88%
kinase still bound, per cent of control (CAMK2G (human)): 57%
kinase still bound, per cent of control (ZAP70 (human)): 74%
kinase still bound, per cent of control (EPHA6 (human)): 97%
kinase still bound, per cent of control (AURKA (human)): 75%
kinase still bound, per cent of control (DDR2 (human)): 91%
kinase still bound, per cent of control [2]: 82%
kinase still bound, per cent of control (PRKD2 (human)): 9.2%
kinase still bound, per cent of control (STK3 (human)): 69%
kinase still bound, per cent of control (ALK (human)): 44%
kinase still bound, per cent of control (EIF2AK2 (human)): 69%
kinase still bound, per cent of control (TNNI3K (human)): 84%
kinase still bound, per cent of control (CDC42BPA (human)): 98%
kinase still bound, per cent of control (MAPK4 (human)): 66%
kinase still bound, per cent of control [3]: 83%
kinase still bound, per cent of control (PKMYT1 (human)): 92%
kinase still bound, per cent of control (MLTK (human)): 97%
kinase still bound, per cent of control (EPHA2 (human)): 100%
kinase still bound, per cent of control (TIE1 (human)): 93%
kinase still bound, per cent of control (ROS1 (human)): 100%
kinase still bound, per cent of control (LATS2 (human)): 100%
kinase still bound, per cent of control (BMPR1A (human)): 100%
kinase still bound, per cent of control (CDK18 (human)): 76%
kinase still bound, per cent of control (EPHB3 (human)): 93%
kinase still bound, per cent of control (CDKL2 (human)): 100%
kinase still bound, per cent of control (PRKG1 (human)): 100%
kinase still bound, per cent of control (SIK2 (human)): 87%

CS(=O)(=O)Nc1ccc(-c2cc(/C=C3\SC(=N)NC3=O)c[nH]c2=O)cc1
kinase still bound, per cent of control (PRKD2 (human)): 32%
kinase still bound, per cent of control (STK3 (human)): 15%
kinase still bound, per cent of control (BMPR1A (human)): 8%

N=C1NC(=O)/C(=C/c2ccc(-c3csc4ccccc34)o2)S1
kinase still bound, per cent of control (MARK3 (human)): 20%
kinase still bound, per cent of control (RAF1 (human)): 33%
kinase still bound, per cent of control (ALK (human)): 32%

CS(=O)(=O)Nc1ccc(-c2ncc(/C=C3\SC(=N)NC3=O)s2)cc1
kinase still bound, per cent of control [1]: 3.4%
kinase still bound, per cent of control (STK10 (human)): 6.8%
kinase still bound, per cent of control [2]: 26%

N=C1NC(=O)/C(=C/c2c[nH]c(=O)c(-c3ccc(N4CCNCC4)nc3)c2)S1
kinase still bound, per cent of control (PRKD2 (human)): 0.1%

CSC1=NC(=O)/C(=C/c2c[nH]c(=O)c(-c3ccc(NS(C)(=O)=O)cc3)c2)S1
kinase still bound, per cent of control (PLK1 (human)): 17%

CS(=O)(=O)Nc1ccc(-c2cncc(/C=C3\SC(=N)NC3=O)c2)cc1
kinase still bound, per cent of control (STK10 (human)): 26%
kinase still bound, per cent of control (STK3 (human)): 17%
kinase still bound, per cent of control (MLTK (human)): 7.6%
kinase still bound, per cent of control (BMPR1A (human)): 0.95%
kinase still bound, per cent of control (SIK2 (human)): 24%

N=C1NC(=O)/C(=C/c2ccc(-c3ccc(C(N)=O)cc3O)o2)S1
kinase still bound, per cent of control (CAMK2A (human)): 28%
kinase still bound, per cent of control (PIK3CD (human)): 26%
kinase still bound, per cent of control (ZAP70 (human)): 25%
